Source: PubChem BioAssay (NCI)
“And” between values parts separate entries of the source, which are not always exact repeats. Equal values may be shown once.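 48-hour exposure; five concentrations; linearly interpolated endpoints. GI50 marks 50% less growth. Definition used: TGI = concentration required for complete inhibition of growth.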

How the values were obtained:
Assay in all cases: DTP human tumour cell line panel, 48 h
SW-620 colon = tested on: SW-620 colon
SNB-19 CNS = tested on: SNB-19 CNS
OVCAR-8 ovarian = tested on: OVCAR-8 ovarian
SK-OV-3 ovarian = tested on: SK-OV-3 ovarian
SF-268 CNS = tested on: SF-268 CNS
OVCAR-5 ovarian = tested on: OVCAR-5 ovarian
MALME-3M melanoma = tested on: MALME-3M melanoma
HCC-2998 colon = tested on: HCC-2998 colon
K-562 leukemia = tested on: K-562 leukemia
NCI/ADR-RES ovarian = tested on: NCI/ADR-RES ovarian

SMILES	TGI (SW-620 colon)	TGI (SNB-19 CNS)	TGI (OVCAR-8 ovarian)	TGI (SK-OV-3 ovarian)	TGI (SF-268 CNS)	TGI (OVCAR-5 ovarian)	TGI (MALME-3M melanoma)	TGI (HCC-2998 colon)	TGI (K-562 leukemia)	GI50 (NCI/ADR-RES ovarian)	TGI (NCI/ADR-RES ovarian)	GI50 (SW-620 colon)	GI50 (SNB-19 CNS)	GI50 (OVCAR-8 ovarian)	GI50 (SK-OV-3 ovarian)	GI50 (SF-268 CNS)	GI50 (OVCAR-5 ovarian)	GI50 (HCC-2998 colon)	GI50 (K-562 leukemia)	GI50 (MALME-3M melanoma)
COc1cc(C=O)c(-c2cc(OC)c(OC)cc2C=O)cc1OC	> 100 µM	> 100 µM	> 100 µM	> 100 µM	> 100 µM	> 100 µM	> 100 µM	> 100 µM	> 100 µM	–	–	–	–	–	–	–	–	–	–	–
N#CC(C(=O)C(=O)Nc1ccc(Cl)cc1)c1ccccc1 (configuration not stated)	> 100 µM	> 100 µM	–	> 100 µM	> 100 µM	> 100 µM	> 100 µM	> 100 µM	> 100 µM	–	–	–	–	–	–	–	–	–	–	–
N#Cc1c(N/N=C/c2ccc(Cl)cc2Cl)nc(N)nc1N1CCCC1	> 100 µM	> 100 µM	> 100 µM	> 100 µM	> 100 µM	99.7 µM	–	> 100 µM	49.5 µM	19.4 µM	82.4 µM	19.5 µM	49.9 µM	27.5 µM	47.8 µM	68.3 µM	24.6 µM	> 100 µM	16.7 µM	–
COc1ccc(-c2coc3c4c(ccc3c2=O)OCO4)cc1OC	> 100 µM	82 µM	> 100 µM	83.6 µM	> 100 µM	> 100 µM	–	> 100 µM	> 100 µM	–	> 100 µM	–	–	–	–	–	–	–	–	–
Cc1nc2sc3c(c2c(=O)[nH]1)CCCC3	> 100 µM	> 100 µM	> 100 µM	> 100 µM	> 100 µM	> 100 µM	> 100 µM	–	> 100 µM	–	> 100 µM	–	–	–	–	–	–	–	–	–
CCOc1ccncc1[N+](=O)[O-]	> 100 µM	> 100 µM	> 100 µM	> 100 µM	> 100 µM	> 100 µM	> 100 µM	–	> 100 µM	–	> 100 µM	–	–	–	–	–	–	–	–	–
CC(=O)O[C@H]1CCC2[C@@H]3CCC4Nc5[nH]ncc5C[C@]4(C)C3CC[C@@]21C (some centres not stated)	> 100 µM	> 100 µM	> 100 µM	> 100 µM	> 100 µM	> 100 µM	> 100 µM	79.7 µM	> 100 µM	–	–	–	–	–	–	–	–	–	–	–
CCCO/S(=N\S(=O)(=O)c1ccccc1)c1ccccc1[N+](=O)[O-] (configuration not stated)	> 100 µM	> 100 µM	> 100 µM	> 100 µM	> 100 µM	> 100 µM	> 100 µM	> 100 µM	> 100 µM	–	–	–	–	–	–	–	–	–	–	–
CC(=O)[O][Ga]([Br])[O]C(C)=O	> 100 µM	> 100 µM	> 100 µM	> 100 µM	> 100 µM	> 100 µM	> 100 µM	–	> 100 µM	–	–	> 100 µM	> 100 µM	> 100 µM	> 100 µM	> 100 µM	> 100 µM	–	> 100 µM	> 100 µM
O=CN1CCN(CC(O)CN2CCCCC2)CC1 (configuration not stated)	> 100 µM	> 100 µM	> 100 µM	> 100 µM	> 100 µM	> 100 µM	> 100 µM	–	> 100 µM	–	> 100 µM	–	–	–	–	–	–	–	–	–
Cc1nc([N+](=O)[O-])cn1CC(=N)N	> 100 µM	> 100 µM	> 100 µM	–	> 100 µM	–	> 100 µM	> 100 µM	> 100 µM	–	–	–	–	–	–	–	–	–	–	–
CN[C@@H](C)[C@@H](NC)c1ccccc1	> 100 µM	–	> 100 µM	> 100 µM	–	–	–	> 100 µM	> 100 µM	–	–	–	–	–	–	–	–	–	–	–
CC(C)N(CCn1c2c3ccccc3ccc2c2oc(=O)c3ccccc3c21)C(C)C	> 100 µM	> 100 µM	> 100 µM	> 100 µM	> 100 µM	> 100 µM	> 100 µM	–	> 100 µM	–	–	–	–	–	–	–	–	–	–	–
CC1COC(C)(C)P(=O)(c2ccccc2)C1 (configuration not stated)	> 100 µM	> 100 µM	> 100 µM	> 100 µM	–	> 100 µM	> 100 µM	> 100 µM	> 100 µM	–	–	–	–	–	–	–	–	–	–	–
O=C(O)c1ccc(OCc2ccccc2)c(Cl)c1	> 100 µM	> 100 µM	> 100 µM	> 100 µM	> 100 µM	> 100 µM	> 100 µM	–	> 100 µM	–	> 100 µM	–	–	–	–	–	–	–	–	–
O=[N+]([O-])c1ccc(N2N=C(c3ccc(NCc4nc5ccccc5[nH]4)cc3)CC2c2ccco2)cc1 (configuration not stated)	> 100 µM	> 100 µM	57.7 µM	> 100 µM	> 100 µM	> 100 µM	66.4 µM	94.1 µM	> 100 µM	–	–	–	–	–	–	–	–	–	–	–
CC1=C(C(=O)Nc2ccc(Cl)c(Cl)c2)C(c2cccc(Oc3ccccc3)c2)NC(=O)N1 (configuration not stated)	43.8 µM	> 50 µM	22 µM	> 50 µM	17.7 µM	33 µM	–	–	> 50 µM	–	–	12.8 µM	20.1 µM	7.67 µM	25.5 µM	6.65 µM	13.4 µM	–	18.6 µM	–
COC(=O)[C@@H](C)C[C@H](Cc1ccccc1)NC(=O)c1csc([C@@H](C[C@H](C(C)C)N(C)C(=O)[C@@H](NC(=O)[C@H]2CCCCN2C)C2CCCCC2)OC(C)=O)n1	> 25 µM	> 25 µM	> 25 µM	> 25 µM	> 25 µM	> 25 µM	–	> 25 µM	4.33 µM	0.0215 µM and 0.0481 µM	> 25 µM	0.000424 µM and 0.0025 µM	0.000718 µM and 0.0025 µM	0.00354 µM and 0.0025 µM	0.000567 µM and 0.0025 µM	0.00375 µM and 0.0025 µM	0.00685 µM and 0.0025 µM	0.000455 µM and 0.0025 µM	0.000374 µM and 0.0025 µM	–
CCOP(=O)(OCC)OC1C=CC2CCC1C2 (configuration not stated)	–	> 100 µM	> 100 µM	> 100 µM	> 100 µM	> 100 µM	> 100 µM	> 100 µM	> 100 µM	–	–	–	–	–	–	–	–	–	–	–
O=C1OCC2C1C1c3ccccc3C(O)c3ccccc3C21 (configuration not stated)	> 100 µM	–	> 100 µM	> 100 µM	> 100 µM	> 100 µM	> 100 µM	> 100 µM	> 100 µM	–	–	–	–	–	–	–	–	–	–	–
O=C(Nc1ccc(F)cc1)c1cc(S(=O)(=O)Nc2nc3ccccc3o2)c(SCc2ccccc2)cc1Cl	33.3 µM	> 100 µM	36 µM	53.1 µM	43.1 µM	35.1 µM	–	32.6 µM	99.6 µM	22.8 µM	54.4 µM	17.6 µM	47 µM	17.7 µM	22.1 µM	17.9 µM	19.7 µM	18.4 µM	24.7 µM	–
